{"source": "patent US8026278B2", "about": "“Inhibitors of pyruvate kinase as therapeutic agents for cancer” (priority 2005, dated 2011)", "key": {"[1]": {"biological_target": "T1, Pyruvate kinase isolated from rabbit muscle (Oryctolagus cuniculus, UniProt P11974)", "T1 construct": "Pyruvate kinase isolated from rabbit muscle; purchased Sigma-Aldrich; host or cells: rabbit muscle (tissue-derived enzyme)", "T1 sequence (P11974 whole entry)": "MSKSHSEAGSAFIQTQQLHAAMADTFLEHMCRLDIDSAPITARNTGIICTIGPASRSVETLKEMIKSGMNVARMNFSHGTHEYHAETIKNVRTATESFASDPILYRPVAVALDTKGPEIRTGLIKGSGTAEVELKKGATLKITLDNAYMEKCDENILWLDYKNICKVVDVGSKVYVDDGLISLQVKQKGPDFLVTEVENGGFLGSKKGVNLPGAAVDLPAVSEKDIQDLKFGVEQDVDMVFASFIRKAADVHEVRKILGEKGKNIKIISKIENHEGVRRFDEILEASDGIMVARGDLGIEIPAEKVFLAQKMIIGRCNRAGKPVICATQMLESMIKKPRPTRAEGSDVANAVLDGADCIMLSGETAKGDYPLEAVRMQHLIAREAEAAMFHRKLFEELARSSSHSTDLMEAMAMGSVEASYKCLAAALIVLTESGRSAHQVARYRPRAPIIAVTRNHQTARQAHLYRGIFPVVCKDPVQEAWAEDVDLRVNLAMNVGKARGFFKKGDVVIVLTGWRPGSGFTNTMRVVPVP", "assay": "Inhibition of pyruvate kinase (indirect assay quantifying ADP production)", "assay_type": "biochemical", "description": "The compounds E-3-chlorophosphoenolpyruvate ditriethyl-ammonium salt (ECPDAT), Z-3-chlorophosphoenolpyruvate tritriethyl-ammonium salt (CPTP), phosphoenol-3-bromo-pyruvic acid mono-cyclohexyl ammonium salt (PBPA), 2-bromooxoethylphosphonic acid mono-cyclohexyl-ammonium salt (BOEPA) and 3-bromopyruvic acid (BrPyA) were tested for their efficiency at inhibiting pyruvate kinase. Pyruvate kinase isolated from rabbit muscle was purchased from Sigma-Aldrich. Pyruvate kinase was assayed indirectly by quantifying ADP production formed in the reaction ATP+pyruvate to ADP+phosphoenolpyruvate. Inhibitors were added to the reaction mixture immediately before the reaction was started by the addition of ATP."}, "[2]": {"system": "MCF7 (breast) cancer cell line", "assay": "MTT assay, inhibition of cell proliferation, MCF7", "assay_type": "cell-based", "settings": "MCF7, 72 hours", "description": "(§1) The compounds of the invention were tested for their inhibition potential of cell proliferation. MCF7 (breast) and SF268 (glioma) cancer cell lines were incubated with different concentrations of the compounds and their viability was assessed using an MTT (3-(4,5-dimethylthiazol-2-yl)-2,5-diphenyltetrazolium bromide) assay. The MTT assay is well known in the art (see for example Slater et al., Biochim. Biophys. Acta 77 (1963) 383). The cells were incubated with a given inhibitor for 72 hours and assayed."}, "[3]": {"system": "SF268 (glioma) cancer cell line", "assay": "MTT assay, inhibition of cell proliferation, SF268", "assay_type": "cell-based", "settings": "SF268, 72 hours", "description": "as §1"}}, "data": [{"substance": "Z-3-chlorophosphoenolpyruvate tritriethyl-ammonium salt [CPTP]", "values": [{"measurement": "Inhibition of pyruvate kinase compared with BrPyA", "setting": "[1]", "value": "inhibited pyruvate kinase at lower concentrations than BrPyA"}, {"measurement": "% Inhibition", "setting": "[1]; Concentration 0.1 μM", "value": 0, "unit": "%"}, {"measurement": "% Inhibition", "setting": "[1]; Concentration 1 μM", "value": 43.7, "unit": "%"}, {"measurement": "% Inhibition", "setting": "[1]; Concentration 10 μM", "value": 48.4, "unit": "%"}, {"measurement": "Inhibition of cell proliferation", "setting": "[2]", "value": "inhibited cell proliferation"}, {"measurement": "% (A-Blank relative to control)", "setting": "[2]; 10 uM", "value": 98.7, "unit": "%"}, {"measurement": "A-Blank (Average-Blank) O.D. at 570 nm", "setting": "[2]; 10 uM", "value": 0.7995, "unit": "O.D."}, {"measurement": "Average O.D. reading at 570 nm", "setting": "[2]; 10 uM", "value": 0.8822, "unit": "O.D."}, {"measurement": "% (A-Blank relative to control)", "setting": "[2]; 25 uM", "value": 98.796, "unit": "%"}, {"measurement": "A-Blank (Average-Blank) O.D. at 570 nm", "setting": "[2]; 25 uM", "value": 0.8003, "unit": "O.D."}, {"measurement": "Average O.D. reading at 570 nm", "setting": "[2]; 25 uM", "value": 0.883, "unit": "O.D."}, {"measurement": "% (A-Blank relative to control)", "setting": "[2]; 50 uM", "value": 101.05, "unit": "%"}, {"measurement": "A-Blank (Average-Blank) O.D. at 570 nm", "setting": "[2]; 50 uM", "value": 0.8185, "unit": "O.D."}, {"measurement": "Average O.D. reading at 570 nm", "setting": "[2]; 50 uM", "value": 0.9013, "unit": "O.D."}, {"measurement": "% (A-Blank relative to control)", "setting": "[2]; 75 uM", "value": 96.173, "unit": "%"}, {"measurement": "A-Blank (Average-Blank) O.D. at 570 nm", "setting": "[2]; 75 uM", "value": 0.779, "unit": "O.D."}, {"measurement": "Average O.D. reading at 570 nm", "setting": "[2]; 75 uM", "value": 0.8618, "unit": "O.D."}, {"measurement": "% (A-Blank relative to control)", "setting": "[2]; 100 uM", "value": 96.358, "unit": "%"}, {"measurement": "A-Blank (Average-Blank) O.D. at 570 nm", "setting": "[2]; 100 uM", "value": 0.7805, "unit": "O.D."}, {"measurement": "Average O.D. reading at 570 nm", "setting": "[2]; 100 uM", "value": 0.8633, "unit": "O.D."}, {"measurement": "% (A-Blank relative to control)", "setting": "[2]; 200 uM", "value": 88.241, "unit": "%"}, {"measurement": "A-Blank (Average-Blank) O.D. at 570 nm", "setting": "[2]; 200 uM", "value": 0.7148, "unit": "O.D."}, {"measurement": "Average O.D. reading at 570 nm", "setting": "[2]; 200 uM", "value": 0.7975, "unit": "O.D."}, {"measurement": "% (A-Blank relative to control)", "setting": "[2]; 300 uM", "value": 81.4198, "unit": "%"}, {"measurement": "A-Blank (Average-Blank) O.D. at 570 nm", "setting": "[2]; 300 uM", "value": 0.6595, "unit": "O.D."}, {"measurement": "Average O.D. reading at 570 nm", "setting": "[2]; 300 uM", "value": 0.7422, "unit": "O.D."}, {"measurement": "% (A-Blank relative to control)", "setting": "[2]; 500 uM", "value": 71.39, "unit": "%"}, {"measurement": "A-Blank (Average-Blank) O.D. at 570 nm", "setting": "[2]; 500 uM", "value": 0.5783, "unit": "O.D."}, {"measurement": "Average O.D. reading at 570 nm", "setting": "[2]; 500 uM", "value": 0.661, "unit": "O.D."}, {"measurement": "Inhibition of cell proliferation", "setting": "[3]", "value": "inhibited cell proliferation"}, {"measurement": "% (A-Blank relative to control)", "setting": "[3]; 10 uM", "value": 99.42, "unit": "%"}, {"measurement": "A-Blank (Average-Blank) O.D. at 570 nm", "setting": "[3]; 10 uM", "value": 0.6887, "unit": "O.D."}, {"measurement": "Average O.D. reading at 570 nm", "setting": "[3]; 10 uM", "value": 0.775, "unit": "O.D."}, {"measurement": "% (A-Blank relative to control)", "setting": "[3]; 25 uM", "value": 99.892, "unit": "%"}, {"measurement": "A-Blank (Average-Blank) O.D. at 570 nm", "setting": "[3]; 25 uM", "value": 0.692, "unit": "O.D."}, {"measurement": "Average O.D. reading at 570 nm", "setting": "[3]; 25 uM", "value": 0.7783, "unit": "O.D."}, {"measurement": "% (A-Blank relative to control)", "setting": "[3]; 50 uM", "value": 98.232, "unit": "%"}, {"measurement": "A-Blank (Average-Blank) O.D. at 570 nm", "setting": "[3]; 50 uM", "value": 0.6805, "unit": "O.D."}, {"measurement": "Average O.D. reading at 570 nm", "setting": "[3]; 50 uM", "value": 0.7668, "unit": "O.D."}, {"measurement": "% (A-Blank relative to control)", "setting": "[3]; 75 uM", "value": 93.829, "unit": "%"}, {"measurement": "A-Blank (Average-Blank) O.D. at 570 nm", "setting": "[3]; 75 uM", "value": 0.65, "unit": "O.D."}, {"measurement": "Average O.D. reading at 570 nm", "setting": "[3]; 75 uM", "value": 0.7363, "unit": "O.D."}, {"measurement": "% (A-Blank relative to control)", "setting": "[3]; 100 uM", "value": 96.752, "unit": "%"}, {"measurement": "A-Blank (Average-Blank) O.D. at 570 nm", "setting": "[3]; 100 uM", "value": 0.6703, "unit": "O.D."}, {"measurement": "Average O.D. reading at 570 nm", "setting": "[3]; 100 uM", "value": 0.7565, "unit": "O.D."}, {"measurement": "% (A-Blank relative to control)", "setting": "[3]; 200 uM", "value": 75.893, "unit": "%"}, {"measurement": "A-Blank (Average-Blank) O.D. at 570 nm", "setting": "[3]; 200 uM", "value": 0.5258, "unit": "O.D."}, {"measurement": "Average O.D. reading at 570 nm", "setting": "[3]; 200 uM", "value": 0.612, "unit": "O.D."}, {"measurement": "% (A-Blank relative to control)", "setting": "[3]; 300 uM", "value": 57.4883, "unit": "%"}, {"measurement": "A-Blank (Average-Blank) O.D. at 570 nm", "setting": "[3]; 300 uM", "value": 0.3982, "unit": "O.D."}, {"measurement": "Average O.D. reading at 570 nm", "setting": "[3]; 300 uM", "value": 0.4845, "unit": "O.D."}, {"measurement": "% (A-Blank relative to control)", "setting": "[3]; 500 uM", "value": 36.8459, "unit": "%"}, {"measurement": "A-Blank (Average-Blank) O.D. at 570 nm", "setting": "[3]; 500 uM", "value": 0.2552, "unit": "O.D."}, {"measurement": "Average O.D. reading at 570 nm", "setting": "[3]; 500 uM", "value": 0.3415, "unit": "O.D."}]}]}
